The values that follow come from US9975846B2, “Multivalent compounds for use in the treatment and prevention of brain damage” (MEDICORTEX FINLAND OY, priority 2014, dated 2018).

Assay [1] relates to MPTP mouse model of Parkinson's disease. Nature of the assay: MPTP mouse model of Parkinson's disease: dopaminergic system protection. To be noted: MPTP 4 x 15 mg/kg i.p.; daily i.p. for 14 days from Day 0; striatal tissue by HPLC. In kind it is in vivo. Here is the method: In the model, depletion of striatal dopamine (DA) and dopaminergic neuronal death in the substantia nigra (SN) is caused by systemic administration of MPTP (1-methyl-4-phenyl-1,2,3,6-tetrahydropyridine). To be more specific, MPTP is administered twice daily, 3 hours apart, by i.p. injections on Day 0 and Day 1. Each dose is 15 mg/kg, the total dose being 60 mg/kg.
Each test compound, control or vehicle is administered by daily i.p. injections for 14 days starting from Day 0.
After euthanization on Day 14, blood samples are collected by cardiac punctures and stored at −80° C. for further analysis. Blood is removed from the brains by transcardial perfusion with saline. Posterior brain blocks containing the SN are then removed and processed for cryosectioning, while striata are dissected in toto, pooled, weighted, snap-frozen in liquid nitrogen, and stored at −80° C.
20-μm-thick coronal cryosections are analysed immunohistochemically for the expression of tyrosine hydroxylase (TH), a rate-limiting enzyme in dopamine synthesis by counting the number of TH-positive neurons bilaterally in the SN.
Striatal tissue samples are analysed for DA and its two metabolites, 3,4-dihydroxyphenylacetic acid (DOPAC) and homovanillic acid (HVA), levels by HPLC.

For a further assay, the system named is MPTP model. Nature of the assay: Modified MPTP mouse model: dopaminergic system protection and behavioral skills. As to conditions: MPTP 4 x 10 mg/kg i.p. Day 1; s.c. three times a week Day 2 to Day 21; rotarod, pole, social recognition tests. Format: in vivo, mice. The method, then:
In this administration scheme, mice are injected i.p. four times with a MPTP dose of 10 mg/kg, two hours apart, on Day 1. Each test compound, control and vehicle are administered s.c. three times a week from Day 2 until Day 21. The present compounds are administered either alone or in combination with a non-steroidal anti-inflammatory drug, antioxidant, and/or metal ions chelate. One week prior to the MPTP dosing, the mice are trained for a rotarod performance test for three days. The rotarod test is then repeated four times during the course of the experiment. Motor performance and coordination is also tested by a pole test. Social recognition test is conducted once on the last days of the experiment.
Background: Falling from the rotarod earlier than controls is read as motor impairment.

In assay [2] the test system is mouse model of experimental closed head injury. Nature of the assay: Mouse model of experimental closed head injury: cognitive rehabilitation after traumatic brain injury. In kind it is in vivo. As to conditions: closed head injury by weight-drop; s.c. from day 8 onwards, three times a week; behavioral tests at baseline, day 7, day 30. The method, then: A mouse model of experimental closed head injury disclosed by Yatsiv et al. in FASEB J. 2005, 19:1701-1703 is employed for testing the efficacy of the present compounds to improve functional recovery after a head trauma caused by a weight-drop onto an exposed skull.
Severity of the injury is assessed according to the Neurological Severity Score disclosed by Beni-Adani et al. (J. Pharmacol. Exp. Ther. 2001, 296:57-63) on the basis of ten individual tasks reflecting motor function, alertness, and behaviour.
Each test compound, control compound, or vehicle is administered subcutaneously from day 8 onwards, three times a week.
Behavioral tests, including open field (OF), elevated plus maze (EMP), and social recognition tests are carried out at baseline, on day 7, and day 30.
After euthanization, plasma levels of cytokines and TBI-specific biomarkers, such as S100B, are determined and the brains are evaluated histologically.

Assay [3] concerns rat model of experimental closed head injury. The assay can be described thus: Rat model of experimental closed head injury: behaviour, brain edema, lesion volume, inflammatory markers. Format: in vivo. To be noted: oral 6 h post-injury. The method, then: A rat model of experimental closed head injury disclosed by Bilgen et al. (Neurorehabil. Neural Repair, 2005, 19:219-226) with some modifications is employed for testing the effect of the present compounds on behaviour, brain edema, lesion volume, and inflammatory markers after a head trauma.
Each test compound, control compound, or vehicle is administered orally 6 h post-injury.
In vivo T2 weighted magnetic resonance imaging (MRI) is performed on the animals to depict the pathologies, including lesion size, tissue viability, and brain edema, of the resulting injuries in the corresponding neuronal tissues at 24 h and day 3.
Behavioral tests, including a seven-point neuroscore test modified from Zausinger et al. (Brain Res., 2000, 863:94-105), are used to assess motor and behavioural deficits by a blinded investigator at baseline and on days 1, 3, 7, 14, and 28 post-injury. Additionally, sensimotor recovery of forelimb and hindlimb responses to tactile and proprioceptive stimulation is evaluated by a limb-placing test essentially as described by Jolkkonen et al. in Restor. Neurol. Neurosci., 2000, 17:211-216.
After euthanization, histological evaluation of the injury in the cortex and hippocampus is performed. Additionally, inflammatory markers, astrocytic and microglial activation is evaluated by immunohistochemistry.

Where [4] appears, read: T2 weighted MRI at 24 h and day 3.

`CCCCC/C=C\C/C=C\CCCCCCCC(=O)Nc1ccc(OC(=O)c2cccc(O)c2O)c(OCCOc2ccccc2OC(=O)c2cccc(O)c2O)c1` [TBI-446, 2-(2-(2-((2,3-dihydroxybenzoyl)oxy)-5-((9Z,12Z)-octadeca-9,12-dienamido)phenoxy)ethoxy)phenyl 2,3-dihydroxybenzoate]: in assay [1], the “protection of the dopaminergic system from reduction of striatal DA levels caused by MPTP” value was “protect the dopaminergic system from the reduction of the DA levels”. In addition, in the assay with MPTP model, the behavioural recovery result is given as “behavioural recovery”. In addition, in assay [2], the “cognitive rehabilitation of the mice” value was “improved cognitive rehabilitation”. In addition, in assay [3] (setting [4]), the “brain edema after closed head injury” value is recorded as “decreased” and the “lesion volume after closed head injury” value is given as “decreased”. Further, in assay [3] (immunohistochemistry after euthanization), the “levels of inflammatory markers” value is “decreased”.
